Source: patent US20230096766A1, “AMINO ACID HAVING FUNCTIONAL GROUP CAPABLE OF INTERMOLECULAR HYDROGEN BONDING, PEPTIDE COMPOUND CONTAINING SAME AND METHOD FOR PRODUCTION THEREOF” (Chugai Seiyaku Kabushiki Kaisha, priority 2018, published 2023)
*1 amine or outer side, *2 acyl side, *3 side chain or, on linkers, in order; H or OH if unused. Where a SMILES comes first, the peptide text is derived from it. Bridges are numbered along the chain shown (N, C = ends). [ ]: non-standard residue; d: D form. The star is where a group is joined. Phe(3-OMe,4-CONHMs) = COc1cc(C[C@H](N)C(=O)O)ccc1C(=O)NS(C)(=O)=O; dhPhe(4-CONHMe,3-OMe) = CNC(=O)c1ccc(CC[C@@H](N)C(=O)O)cc1OC; X1 = COc1cc(C[C@H](N[*:1])C(=O)[*:2])ccc1C(=O)NO; X18 = NN([C@@H](Cc1cccc(Cl)c1)C(=O)[*:2])[*:1]; NMePhe(3-Cl) = CN[C@@H](Cc1cccc(Cl)c1)C(=O)O; X9 = O=C([C@@H](CN[*:1])COCCO)[*:2]; NMeF = CN[C@@H](Cc1ccccc1)C(=O)O; NMeGABA = CN(CCCC(=O)[*:2])[*:1]; NMeL = CN[C@@H](CC(C)C)C(=O)O; Propyl(2R-OH) = C[C@@H](O)C*; Butyl(3S-OH) = C[C@H](O)CC*; NMeV = CN[C@H](C(=O)O)C(C)C; NMeAbu = CC[C@H](NC)C(=O)O; NMeA = CN[C@@H](C)C(=O)O; Piperidide = C1CCN(*)CC1; X8 = C1COC[C@@H](C*)N1; NBuGly = CCCCNCC(=O)O; Sar = CNCC(=O)O; tBu = CC(C)(C)*

assay: in vitro; conditions: human, Caco-2, Caco-2 (cm/sec)

| SMILES | Papp [×10⁻⁶ cm/s] |
| --- | --- |
| CC[C@H](C)[C@@H]1NC(=O)[C@H](CC(C)C)N(C)C(=O)CCCN(C)C(=O)C[C@@H](C(=O)N2CCCCC2)NC(=O)[C@H](CC(C)C)N(C)C(=O)[C@H](CC(C)C)N(C)C(=O)[C@H]([C@@H](C)O)NC(=O)[C@H](CC(C)C)N(C)C(=O)[C@H](COCCO)CNC(=O)[C@H](CC(C)C)N(C)C(=O)[C@H](Cc2cccc(Cl)c2)N(C)C1=O [AP130] ([NMeGABA][NMeL]I[NMePhe(3-Cl)][NMeL][X9][NMeL]T[NMeL][NMeL]D-Piperidide; lactam N-11) | 0.46 |
| CC[C@H]1C(=O)N(C)[C@@H](Cc2ccccc2)C(=O)N[C@@H](CC(C)C)C(=O)N(C)[C@@H](CC(C)C)C(=O)N(C)[C@@H](CC(C)C)C(=O)N[C@@H](COC[C@@H]2COCCN2)C(=O)N(C)CC(=O)N(C)[C@@H](CC(C)C)C(=O)N[C@H](C(=O)N2CCCCC2)CC(=O)N(C)[C@@H](C)C(=O)N[C@@H](CC(C)C)C(=O)N1C [AP246] ([NMeA]L[NMeAbu][NMeF]L[NMeL][NMeL]S(X8)[Sar][NMeL]D-Piperidide; lactam N-11) | 0.23 |
| CCCCN1CC(=O)N(C)[C@@H](CC(C)C)C(=O)N[C@@H](COC(C)(C)C)C(=O)N(C)[C@@H](Cc2ccccc2)C(=O)N(C)[C@@H](CC(C)C)C(=O)N[C@H](C(=O)N2CCCCC2)CC(=O)N[C@H](C(C)C)C(=O)N(C)[C@@H](C(C)C)C(=O)N[C@@H](Cc2ccc(C(=O)NO)c(OC)c2)C(=O)N(C)[C@@H](CC(C)C)C(=O)N[C@@H]([C@@H](C)O)C1=O [AP256] ([dV][NMeV][X1][NMeL]T[NBuGly][NMeL]S(tBu)[NMeF][NMeL]D-Piperidide; lactam N-11) | 0.08 |
| CCCCN1CC(=O)N(C)[C@@H](Cc2ccccc2)C(=O)N(C)[C@@H](C(C)C)C(=O)N[C@@H](COC(C)(C)C)C(=O)N(C)[C@@H](CC(C)C)C(=O)N[C@H](C(=O)N2CCCCC2)CC(=O)N(C)CC(=O)N(N)[C@@H](Cc2cccc(Cl)c2)C(=O)N[C@@H](COCC[C@H](C)O)C(=O)N(C)[C@@H](CC(C)C)C(=O)N[C@@H]([C@@H](C)O)C1=O [AP105] ([Sar][X18]S(Butyl(3S-OH))[NMeL]T[NBuGly][NMeF][NMeV]S(tBu)[NMeL]D-Piperidide; lactam N-11) | 0.55 |
| CCCCN1CC(=O)N(C)[C@@H](CC(C)C)C(=O)N[C@@H](COC(C)(C)C)C(=O)N(C)[C@@H](CC(C)C)C(=O)N(C)[C@@H](CC)C(=O)N[C@H](C(=O)N2CCCCC2)CC(=O)N[C@H](CC(C)C)C(=O)N(C)[C@@H](Cc2ccccc2)C(=O)N[C@H](CCc2ccc(C(=O)NC)c(OC)c2)C(=O)N(C)[C@@H](CC(C)C)C(=O)N[C@@H]([C@@H](C)O)C1=O [AP209] ([dL][NMeF][dhPhe(4-CONHMe,3-OMe)][NMeL]T[NBuGly][NMeL]S(tBu)[NMeL][NMeAbu]D-Piperidide; lactam N-11) | 0.56 |
| CC(C)C[C@@H]1NC(=O)[C@H](Cc2ccccc2)N(C)C(=O)[C@@H](C(C)C)NC(=O)C[C@@H](C(=O)N2CCCCC2)NC(=O)[C@H](CC(C)C)N(C)C(=O)[C@H](Cc2cccc(Cl)c2)N(C)C(=O)[C@H](COC[C@@H](C)O)NC(=O)[C@H](CC(C)C)N(C)C(=O)CN(C)C(=O)[C@H]([C@@H](C)O)NC(=O)[C@H](CC(C)C)N(C)C1=O [AP72] ([dV][NMeF]L[NMeL]T[Sar][NMeL]S(Propyl(2R-OH))[NMePhe(3-Cl)][NMeL]D-Piperidide; lactam N-11) | 0.95 |
| CC[C@H](C)[C@@H]1NC(=O)[C@H](CC(C)C)N(C)C(=O)CCCN(C)C(=O)C[C@@H](C(=O)N2CCCCC2)NC(=O)[C@H](CC(C)C)N(C)C(=O)[C@H](CC(C)C)N(C)C(=O)[C@H]([C@@H](C)O)NC(=O)[C@H](CC(C)C)N(C)C(=O)[C@H](Cc2ccc(C(=O)NS(C)(=O)=O)c(OC)c2)NC(=O)[C@H](CC(C)C)N(C)C(=O)[C@H](Cc2ccccc2)N(C)C1=O [AP138] ([NMeGABA][NMeL]I[NMeF][NMeL][Phe(3-OMe,4-CONHMs)][NMeL]T[NMeL][NMeL]D-Piperidide; lactam N-11) | 0.06 |
| CC(C)C[C@H]1C(=O)N[C@@H](C(C)C)C(=O)N(C)[C@@H](Cc2ccccc2)C(=O)N(C)[C@@H](Cc2ccccc2)C(=O)N[C@@H](COC(C)(C)C)C(=O)N(C)[C@@H](CC(C)C)C(=O)N[C@@H]([C@@H](C)O)C(=O)N(C)[C@@H](Cc2ccccc2)C(=O)N(C)[C@@H](CC(C)C)C(=O)N[C@H](C(=O)N2CCCCC2)CC(=O)N(C)CCCC(=O)N1C [pd216] ([NMeGABA][NMeL]V[NMeF][NMeF]S(tBu)[NMeL]T[NMeF][NMeL]D-Piperidide; lactam N-11) | 1.2 |
| CC[C@H]1C(=O)N[C@@H](CC(C)C)C(=O)N(C)[C@@H](CC(C)C)C(=O)N(C)[C@@H](Cc2ccccc2)C(=O)N[C@H](CCc2ccc(C(=O)NC)c(OC)c2)C(=O)N(C)[C@@H](CC(C)C)C(=O)N(C)[C@@H](CC(C)C)C(=O)N[C@@H]([C@@H](C)O)C(=O)N(C)CC(=O)N(C)[C@@H](CC(C)C)C(=O)N[C@H](C(=O)N2CCCCC2)CC(=O)N1C [AP212] ([NMeAbu]L[NMeL][NMeF][dhPhe(4-CONHMe,3-OMe)][NMeL][NMeL]T[Sar][NMeL]D-Piperidide; lactam N-11) | 0.64 |
